This is an account of results in PMC10672332, “Lecanicilliums A–F, Thiodiketopiperazine-Class Alkaloids from a Mangrove Sediment-Derived Fungus Lecanicillium kalimantanense” (Marine Drugs, 2023).

One series deals with S. iniae. As to the kind of experiment: Antibacterial assay, micro broth dilution. The series is classed as cell-based. The conditions noted are these: Streptococcus iniae; micro broth dilution, LB medium, 24 hours at 37 °C; read-out: Antibacterial Activity (MIC) S. iniae. The procedure: (§1) The micro broth dilution method was used to evaluate the antibacterial activities of compounds 1–19 against the growth of eight common pathogens: Bacillus subtilis BS01, Micrococcus luteus, Escherichia coli ATCC 25922, Staphylococcus aureus ATCC 6538, S. aureus MRSA, Streptococcus agalactiae ATCC 13813, S. iniae, and Pseudomonas aeruginosa ATCC 9027 in 96-well polystyrene plates. Vancomycin and ciprofloxacin were used as positive controls. Briefly, wells containing 100 μL bacteria dilutions (OD600 = 0.01) in Luria–Bertani (LB) medium were supplemented with different concentrations of 1–19 (80, 40, 20, 10, 5, 2.5, 1.25, and 0.625 μg/mL), vancomycin, and ciprofloxacin (40, 20, 10, 5, 2.5, 1.25, 0.625, and 0.3125 μg/mL), respectively. The MICs were determined after 24 hours’ incubation at 37 °C with the tested compounds.
On the technique in general: Dilution methods test growth across graded concentrations, often in twofold steps.

Series [1] deals with Escherichia coli ATCC 25922. As to the kind of experiment: Antibacterial assay, micro broth dilution. The series is classed as cell-based. To be noted: ATCC25922, micro broth dilution, LB medium, 24 hours at 37 °C, read-out: Antibacterial Activity (MIC) E. coli. The procedure: as §1
The next series concerns Bacillus subtilis BS01. Briefly: Antibacterial assay, micro broth dilution. The series is classed as cell-based. To be noted: BS01, micro broth dilution, LB medium, 24 hours at 37 °C, read-out: Antibacterial Activity (MIC) B. subtilis. The procedure: as §1
Series [2] relates to Staphylococcus aureus ATCC 6538. Briefly: Antibacterial assay, micro broth dilution. The class given is cell-based. To be noted: ATCC6538, micro broth dilution, LB medium, 24 hours at 37 °C, read-out: Antibacterial Activity (MIC) S. aureus. The procedure:
as §1

Series [3] concerns Streptococcus agalactiae ATCC 13813. As to the kind of experiment: Antibacterial assay, micro broth dilution. The series is classed as cell-based. To be noted: ATCC13813, micro broth dilution, LB medium, 24 hours at 37 °C, read-out: Antibacterial Activity (MIC) S. agalactiae. The procedure:
as §1

In series [4] the test system is Pseudomonas aeruginosa ATCC 9027. Briefly: Antibacterial assay, micro broth dilution. The class given is cell-based. To be noted: ATCC9027, micro broth dilution, LB medium, 24 hours at 37 °C, read-out: Antibacterial Activity (MIC) P. aeruginosa. The procedure: as §1
The test system of the next series is brine shrimps. As to the kind of experiment: Brine shrimp lethality bioassay. The class given is in vivo. To be noted: Table 3. The text has this: The methods were the same as those used in our previous studies.
A further series concerns Micrococcus luteus. Briefly: Antibacterial assay, micro broth dilution. The class given is cell-based. The conditions noted are these: read-out: Antibacterial Activity (MIC) M. luteus. The procedure:
as §1

The subject of the next series is S. aureus MRSA. As to the kind of experiment: Antibacterial assay, micro broth dilution. The series is classed as cell-based. The conditions noted are these: Staphylococcus aureus, read-out: Antibacterial Activity (MIC) MRSA. The procedure: as §1
Series [5] in a line: Cytotoxicity, CCK-8 method. The series is classed as cell-based. The conditions noted are these: human. The procedure:
(§2) Cytotoxic activity was evaluated using the human lung adenocarcinoma cell line H1975 and human hepatocellular carcinoma cell line HepG-2, using the CCK-8 method as described in our previous study. Briefly, each of the test compounds was dissolved in DMSO and further diluted to give final concentrations of 80, 40, 20, 10, 5, 2.5, and 1.25 μM, respectively. H1975 cells or HepG-2 cells (5 × 10^3 […]) were seeded in 96-well plates and treated with compounds at the indicated concentration for 24 hours and then 10 μL CCK-8 reagent was added to each well. The plates were incubated at 37 °C for another 4 hours. Finally, the optical density was measured at a wavelength of 450 nm with a Bio-Rad microplate reader. Dose–response curves were generated, and the IC50 values were calculated from the linear portion of log dose–response curves.
A general note: Formazan colour is commonly taken as a measure of viable cells.

The nature of series [6]: Cytotoxicity, CCK-8 method. The class given is cell-based. To be noted: human. The procedure: as §2
This is another data set of the same source.

Where [7] appears, read: micro broth dilution, LB medium, 24 hours at 37 °C.
Setting [8] is: HepG-2 cells (hepatocellular carcinoma cell line), HepG-2 cells, CCK-8, 24 hours treatment, read-out: Cytotoxicity (IC50) against HepG-2.
[9] abbreviates: H1975 cells (lung adenocarcinoma cell line), H1975 cells, CCK-8, 24 hours treatment, read-out: Cytotoxicity (IC50) against H1975.

The term MIC denotes the least concentration at which growth counts as inhibited. Broadly, the IC50 is the concentration that inhibits the measured activity by half.

Values after ≈ are worked out from the molar mass of the structure shown. Read-outs that look alike come from different tables or passages of the source. Some results are limits rather than exact numbers.

With `O=C(O)c1cn(C2CC2)c2cc(N3CCNCC3)c(F)cc2c1=O` [CFN, Ciprofloxacin, reference compound], the minimal inhibitory concentration (MIC) with S. iniae turned out to be 2.5 µg/mL (≈ 7.54 µM); in [1] it was 0.6 µg/mL (≈ 1.81 µM); in the series with Bacillus subtilis BS01, 0.6 µg/mL (≈ 1.81 µM); in series [2] it was 0.6 µg/mL (≈ 1.81 µM); in series [3], 5 µg/mL (≈ 15.1 µM); in series [4], 0.6 µg/mL (≈ 1.81 µM).
`O=C1N2C3OC=CC4SC2(CC3C4O)C(=O)NC12Cc1ccccc1O2` (stereo not drawn) [Compound 1, Lecanicillium A]: the “Toxicity (TC50) Brine Shrimp” value with brine shrimps was over 80 µg/mL. Also, the MIC was over 80 µg/mL in the series on S. iniae; over 80 µg/mL in series [1]; 60 µg/mL (≈ 161 µM) with Bacillus subtilis BS01; over 80 µg/mL in series [2]; over 80 µg/mL in series [3]; over 80 µg/mL in the series on Micrococcus luteus (setting [7]). The minimum inhibitory concentration (MIC) (in the series with S. aureus MRSA (setting [7]); in series [4]) was over 80 µg/mL each time.
On to `CSC12CC3=COC=CC(O)C3N1C(=O)C1(Cc3ccccc3O1)NC2=O` (stereo not drawn) [Compound 2, Lecanicillium B], for which the IC50 at 24 h in series [5] and in [6] was over 80 µM in each case. Moreover, the “Toxicity (TC50) Brine Shrimp” value with brine shrimps is over 80 µg/mL. The minimum inhibitory concentration (MIC) was 70 µg/mL (≈ 181 µM) in the series with S. iniae; over 80 µg/mL in [1]; 80 µg/mL (≈ 207 µM) with Bacillus subtilis BS01; over 80 µg/mL in series [2]; over 80 µg/mL in series [3]; 60 µg/mL (≈ 155 µM) with Micrococcus luteus (setting [7]). Also, the minimal inhibitory concentration (MIC) (with S. aureus MRSA (setting [7]); in series [4]) was over 80 µg/mL in each case.
In the case of `CSC12CC3=COC=CC(OC(C)=O)C3N1C(=O)C1(SC)CC34OC3C3OC3C(OC(C)=O)C4N1C2=O` (stereo not drawn) [Compound 3, Lecanicillium C], the IC50 at 24 h in series [5] and in series [6] was over 80 µM each time. Further, in the series on brine shrimps, the “Toxicity (TC50) Brine Shrimp” value is over 80 µg/mL. Also, the minimal inhibitory concentration (MIC) (in the series with S. iniae; in series [1]; in the series on Bacillus subtilis BS01; in series [2]; in [3]; with Micrococcus luteus (setting [7])) was over 80 µg/mL in each case. For the same compound, the MIC (in the series on S. aureus MRSA (setting [7]); in [4]) was over 80 µg/mL throughout.
Take `CSC12CC3=COC=CC(OC(C)=O)C3N1C(=O)C1(SC)CC3(O)C=CC(=O)C(OC(C)=O)C3N1C2=O` (stereo not drawn) [Compound 4, Lecanicillium D]: the IC50 at 24 h in series [5] is over 80 µM; in series [6], 71.5 µM. Also, in the series with brine shrimps, the “Toxicity (TC50) Brine Shrimp” value was 80 µg/mL. Further, the MIC was 40 µg/mL (≈ 72.6 µM) in the series with S. iniae; over 80 µg/mL in series [1]; 50 µg/mL (≈ 90.8 µM) in the series with Bacillus subtilis BS01; over 80 µg/mL in series [2]; over 80 µg/mL in series [3]; over 80 µg/mL in the series with Micrococcus luteus (setting [7]). The MIC (in the series with S. aureus MRSA (setting [7]); in series [4]) was over 80 µg/mL throughout.
In the case of `CS[C@@]1(Cc2ccccc2)NC(=O)[C@H](Cc2ccccc2)NC1=O` [Compound 6, Lecanicillium F], the IC50 at 24 h in series [5] (setting [8]) and in series [6] (setting [9]) was over 80 µM each time. Further, the MIC (in the series with S. iniae; in series [1]; in the series with Bacillus subtilis BS01; in series [2]; in series [3]; with Micrococcus luteus (setting [7])) was over 80 µg/mL in each case. The MIC (in the series on S. aureus MRSA (setting [7]); in series [4]) was over 80 µg/mL each time.
`CS[C@@]1(Cc2ccccc2)NC(=O)[C@@](Cc2ccccc2)(SC)NC1=O` [Compound 7, emethacin B]: the 50% inhibitory concentration (IC50) at 24 h in series [5] (setting [8]) was over 80 µM; in series [6] (setting [9]) it was 16.9 µM. For the same compound, the MIC (in the series with S. iniae; in series [1]; with Bacillus subtilis BS01; in series [2]; in series [3]; in the series on Micrococcus luteus (setting [7])) was over 80 µg/mL each time. Further, the MIC (in the series on S. aureus MRSA (setting [7]); in [4]) was over 80 µg/mL each time.
On to `CS[C@@]12CC3=COC=C[C@H](OC(C)=O)[C@H]3N1C(=O)[C@]1(SC)CC3=COC=C[C@H](OC(C)=O)[C@H]3N1C2=O` [Compound 8, bisdethiobis(methylsulfanyl)acetylaranotin], for which the IC50 at 24 h in [5] and in [6] was over 80 µM in each case. Also, the MIC (in the series with S. iniae; in series [1]; in the series with Bacillus subtilis BS01; in series [2]; in series [3]; with Micrococcus luteus (setting [7])) was over 80 µg/mL in each case. Also, the minimum inhibitory concentration (MIC) (with S. aureus MRSA (setting [7]); in series [4]) was over 80 µg/mL throughout.
`CS[C@@]12CC3=COC=C[C@H](OC(C)=O)[C@H]3N1C(=O)[C@]1(SC)CC3=CC=C[C@H](O)[C@H]3N1C2=O` [Compound 13, bisdethiobis(methylsulfanyl)apoaranotin]: the IC50 at 24 h in series [5] and in [6] was over 80 µM in each case. Also, the minimum inhibitory concentration (MIC) (in the series on S. iniae; in series [1]; in the series with Bacillus subtilis BS01; in series [2]; in series [3]; in the series on Micrococcus luteus (setting [7])) was over 80 µg/mL throughout. Also, the MIC (in the series on S. aureus MRSA (setting [7]); in series [4]) was over 80 µg/mL throughout.
Regarding `CS[C@@]12Cc3ccccc3N1C(=O)[C@]1(SC)CC3=COC=C[C@H](OC(C)=O)C3N1C2=O` (stereo partly drawn) [Compound 16, versicolor A], the results for the half-inhibitory concentration (IC50) at 24 h in series [5] and in series [6] were over 80 µM and 7.2 µM, respectively. Moreover, the MIC is over 80 µg/mL in the series with S. iniae; over 80 µg/mL in series [1]; 70 µg/mL (≈ 153 µM) with Bacillus subtilis BS01; over 80 µg/mL in [2]; 70 µg/mL (≈ 153 µM) in [3]; over 80 µg/mL in the series on Micrococcus luteus (setting [7]). For the same compound, the minimum inhibitory concentration (MIC) (in the series with S. aureus MRSA (setting [7]); in series [4]) was over 80 µg/mL throughout.
Turning to `CS[C@@]12Cc3ccccc3N1C(=O)[C@]1(SC)CC3=COC=C[C@H](O)C3N1C2=O` (stereo partly drawn) [Compound 17, 12,12a-anhydro-desacetyl-bis-dethio-7a, 14a-di-(methylmercapto)-apoaranotin], the half-inhibitory concentration (IC50) at 24 h in series [5] was over 80 µM; in series [6], 35.2 µM. In addition, the MIC with S. iniae is 30 µg/mL (≈ 72 µM); in series [1], over 80 µg/mL; in the series with Bacillus subtilis BS01, 80 µg/mL (≈ 192 µM); in [2], over 80 µg/mL; in [3], 70 µg/mL (≈ 168 µM); in the series with Micrococcus luteus (setting [7]), over 80 µg/mL. The MIC (in the series on S. aureus MRSA (setting [7]); in [4]) was over 80 µg/mL each time.
Take `CS[C@@H]1NC(=O)[C@@](Cc2ccccc2)(SC)NC1=O` [Compound 19, citriperazine B]: the IC50 at 24 h in series [5] (setting [8]) and in series [6] (setting [9]) was over 80 µM in each case. Also, the MIC was over 80 µg/mL with S. iniae; over 80 µg/mL in [1]; 80 µg/mL (≈ 270 µM) in the series on Bacillus subtilis BS01; over 80 µg/mL in series [2]; over 80 µg/mL in series [3]; 70 µg/mL (≈ 236 µM) with Micrococcus luteus (setting [7]). Further, the MIC (in the series on S. aureus MRSA (setting [7]); in series [4]) was over 80 µg/mL each time.
For the compound `CN[C@H](CC(C)C)C(=O)N[C@H]1C(=O)N[C@@H](CC(N)=O)C(=O)N[C@H]2C(=O)N[C@H]3C(=O)N[C@H](C(=O)N[C@H](C(=O)O)c4cc(O)cc(O)c4-c4cc3ccc4O)[C@H](O)c3ccc(c(Cl)c3)Oc3cc2cc(c3O[C@@H]2O[C@H](CO)[C@@H](O)[C@H](O)[C@H]2O[C@H]2C[C@](C)(N)[C@H](O)[C@H](C)O2)Oc2ccc(cc2Cl)[C@H]1O` [VMN, Vancomycin, reference compound], the minimal inhibitory concentration (MIC) came to 0.6 µg/mL (≈ 0.414 µM) in the series on Micrococcus luteus (24 h) and 2.5 µg/mL (≈ 1.73 µM) in the series on S. aureus MRSA (24 h).
